The target of test [1] is T1, human LAT-1 (Homo sapiens (Human), UniProt Q01650). As to the kind of experiment: Inhibition of [14C]L-leucine uptake into human LAT-1 stably expressing HEK293 cell line (uptake buffer, 1 min). It is filed as cell-based. The settings on record: HEK293 human LAT-1 stably expressing cells; Na+-free HBSS pH7.4; [14C]L-leucine or alanine 1 μM, uptake 1 min; read-out: LAT-1 inhibitory activity/IC50. The source says: (§1) 1) LAT-1 Inhibitory Activity and LAT-2 Inhibitory Activity Inhibitory Effect on Uptake of Amino Acid into Human LAT-1 Stably Expressing Cell Line and LAT-2 Stably Expressing Cell Line
(§2) Expression vector each expressing a gene was inserted using Lipofectamine 2000 (Invitrogen) to cultured cell line HEK293 cell derived from human fetus renal cell. The resistant strains were selected using G418, and among them, the strains showing human LAT-1- or LAT-2-specific uptake of amino acid were established as stably expressing cell lines, respectively.
(§3) The above-mentioned stably expressing cells were plated on a 24-well collagen plate at 1.2×10^5 cells/well, and, after 48 hr, the cells were washed (×3) with uptake buffer ([…] Hank's balanced salt solution (HBSS) pH7.4) kept at 37° C. Each test compound (0.1, 1, 3, 10, 30, 100, 300 and 1000 μM) was added thereto, and the mixture was kept at 37° C. for 3 min. [^14C]L-leucine or alanine (1 μM) was added thereto, and [^14C]L-leucine or alanine (1 μM) was uptaken for 1 min. The mixture was washed with ice-cold uptake buffer (×3). Then, the cells were dissolved in 0.1M NaOH aqueous solution (500 μL), and the protein concentration was measured using the 20 μL of the solution. The uptaken radioactivity was measured using the remaining solution. The measured results were corrected with the protein concentration. The results were evaluated as inhibitory capacity 50%, i.e., IC50, which corresponds to the concentration inhibiting 50% of the cellular uptake of amino acid.

Test [2] concerns the target human LAT-2 (Homo sapiens (Human), UniProt Q9UHI5). The experiment in a line: Inhibition of [14C] amino acid uptake into human LAT-2 stably expressing HEK293 cell line (uptake buffer, 1 min). It is filed as cell-based. The settings on record: HEK293 human LAT-2 stably expressing cells; Na+-free HBSS pH7.4; [14C]L-leucine or alanine 1 μM, uptake 1 min; read-out: LAT-2 inhibitory activity/IC50.
From the text: as §1, §2, §3

The subject of test [3] is subcutaneous tumor derived from human pancreatic cancer cell line MIAPaCa-2. As to the kind of experiment: Enlargement inhibitory effect on subcutaneous tumor derived from MIAPaCa-2 in nude mice. It is filed as in vivo, nude mice (BALB/cAJc1-nu). The settings on record: 1 mg/kg orally once a day for 7 days; female nude mice; tumor volume after 15 to 21 days vs control group. Here is the method: Experimental Example 2 Biological Activity Evaluation Test Enlargement Inhibitory Effect on Subcutaneous Tumor Derived from Human Pancreatic Cancer Cell Line MIAPaCa-2 in Nude Mice
Tumor tissue (0.1 g) derived from MIAPaCa-2 cell was subcutaneously transplanted into female nude mice (6-week old, BALB/cAJc1-nu), which the tumor tissue was formed in different nude mice in advance. 5% MC suspension was prepared from saline and each test compound (1 mg/kg), and it was orally-administered once a day for 7 days from 2 days after transplant. The time-dependent change of the tumor volume was measured by measuring (major axis×minor axis×minor axis)/2 of the tumor volume (weight) according to the method in Sawa, Jun Wu, Takaaki Akaike, and Hiroshi Maeda (2000) Cancer research 60, 666-671.
The tumor volume after 15 to 21 days administration of compound administration group was compared with those of control group, and the tumor growth inhibitory ratio was calculated. The anti-tumor action was evaluated as tumor growth inhibitory ratio.

The test system of test [4] is MIAPaCa-2 cells. The experiment in a line: Growth inhibitory effect on human pancreatic cancer cell line MIAPaCa-2 (Trypan-Blue method). It is filed as cell-based. The settings on record: MIA PaCa-2, 0.2% DMSO, counted every 24 hr for 5 days. The method, then:
2) Growth Inhibitory Effect on Human Pancreatic Cancer Cell Line MIAPaCa-2
MIAPaCa-2 cells were plated on a 12-well plate at 2000 cells/well, and cultured for 48 hr without addition of test compound. 48 hr after the beginning of the culture, each test compound (0.03, 0.1, 0.3, 1, 3, 6, 10, 30, 100 μM) was added thereto in the presence of 0.2% DMSO. The cells were counted every 24 hr for 5 days, and the inhibitory effect on the MIAPaCa-2 cell growth was observed by Trypan-Blue method. The results were evaluated as inhibitory capacity 50%, i.e., IC50, which corresponds to the concentration inhibiting 50% of the cell growth inhibitory activity.

Test [5] concerns the target T1, human LAT-1. As to the kind of experiment: Inhibition of [14C]L-leucine uptake into human LAT-1 stably expressing cells in culture solution (MEM medium, 120 min). The settings on record: MEM medium containing non-essential amino acid, [14C]L-leucine uptake 120 min, read-out: LAT-1 inhibitory activity/IC50. It is filed as cell-based.
Description: The above-mentioned human LAT-1 stably expressing cells were plated on a 24-well collagen plate at 1.2×10^5 cells/well, and, after 48 hr, the cells were washed (×3) with new culture solution (MEM medium (containing non-essential amino acid)) kept at 37° C. Each test compound (0.1, 1, 3, 10 and 30 μM) was added thereto, and the mixture was kept at 37° C. for 3 min. [^14C]L-leucine was added thereto, and [^14C]L-leucine was uptaken in the culture solution for 120 min. The mixture was washed (×3) with ice-cold buffer (Na^2+-free Hank's balanced salt solution (HBSS) pH7.4). Then, the cells were dissolved in 0.1M NaOH aqueous solution (500 μL), and the protein concentration was measured using the 20 μL of the solution. The uptaken radioactivity was measured using the remaining solution. The measured results were corrected with the protein concentration. The results were evaluated as inhibitory capacity 50%, i.e., IC50, which corresponds to the concentration inhibiting 50% of the cellular uptake of amino acid.

Experimental findings from US9771316B2, “Phenoxyalkylamine compound” (OSAKA UNIVERSITY, priority 2013, dated 2017) are described below.

Where a name gives a salt, the structure may show the parent alone.

T1 sequence (Q01650 whole entry): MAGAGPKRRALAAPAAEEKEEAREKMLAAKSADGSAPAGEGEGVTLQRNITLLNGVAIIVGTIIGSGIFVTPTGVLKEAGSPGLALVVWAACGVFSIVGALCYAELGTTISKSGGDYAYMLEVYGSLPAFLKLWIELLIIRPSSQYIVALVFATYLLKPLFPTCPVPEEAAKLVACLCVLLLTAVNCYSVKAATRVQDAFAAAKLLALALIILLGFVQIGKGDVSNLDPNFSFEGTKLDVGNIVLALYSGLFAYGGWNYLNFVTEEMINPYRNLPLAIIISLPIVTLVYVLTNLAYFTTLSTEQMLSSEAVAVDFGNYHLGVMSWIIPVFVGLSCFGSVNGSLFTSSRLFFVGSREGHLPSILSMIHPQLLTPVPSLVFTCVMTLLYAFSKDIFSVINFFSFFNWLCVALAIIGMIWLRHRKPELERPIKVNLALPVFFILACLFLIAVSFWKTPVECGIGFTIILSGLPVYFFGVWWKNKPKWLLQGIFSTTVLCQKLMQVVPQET
T1 sequence (P08195 102-630 partner): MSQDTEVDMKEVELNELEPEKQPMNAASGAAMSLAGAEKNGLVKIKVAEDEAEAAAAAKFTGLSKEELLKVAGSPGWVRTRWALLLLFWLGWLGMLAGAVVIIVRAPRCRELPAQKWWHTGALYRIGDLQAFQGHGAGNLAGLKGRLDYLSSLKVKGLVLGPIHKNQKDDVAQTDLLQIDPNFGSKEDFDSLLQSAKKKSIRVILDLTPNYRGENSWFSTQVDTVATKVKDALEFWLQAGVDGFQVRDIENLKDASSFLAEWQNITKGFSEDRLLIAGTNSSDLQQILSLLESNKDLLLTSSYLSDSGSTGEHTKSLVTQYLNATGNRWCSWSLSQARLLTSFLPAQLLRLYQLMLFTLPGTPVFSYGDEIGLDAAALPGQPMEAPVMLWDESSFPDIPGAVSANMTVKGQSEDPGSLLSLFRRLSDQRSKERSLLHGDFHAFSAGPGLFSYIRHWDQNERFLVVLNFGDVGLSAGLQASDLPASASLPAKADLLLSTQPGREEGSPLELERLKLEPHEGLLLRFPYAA
human LAT-2, sequence (Q9UHI5 whole entry): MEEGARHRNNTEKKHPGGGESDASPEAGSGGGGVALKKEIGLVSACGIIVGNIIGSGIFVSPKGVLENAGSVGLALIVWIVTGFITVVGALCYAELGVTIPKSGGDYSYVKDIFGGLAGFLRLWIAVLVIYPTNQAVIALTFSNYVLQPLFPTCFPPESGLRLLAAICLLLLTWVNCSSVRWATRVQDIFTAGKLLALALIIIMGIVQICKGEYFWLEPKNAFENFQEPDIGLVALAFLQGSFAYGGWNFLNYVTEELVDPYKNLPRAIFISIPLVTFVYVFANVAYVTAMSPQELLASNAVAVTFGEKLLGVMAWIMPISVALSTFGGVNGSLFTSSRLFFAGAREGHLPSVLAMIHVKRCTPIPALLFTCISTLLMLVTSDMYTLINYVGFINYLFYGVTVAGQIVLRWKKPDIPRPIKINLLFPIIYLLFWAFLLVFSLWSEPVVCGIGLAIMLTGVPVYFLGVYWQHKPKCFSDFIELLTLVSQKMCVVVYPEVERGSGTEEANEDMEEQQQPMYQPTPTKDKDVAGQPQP
human LAT-2, sequence (P08195 102-630 partner): as the sequence (P08195 102-630 partner) above

Consider `NCCCCC(Oc1ccc(C(F)(F)F)cc1)c1ccccc1` (stereo not drawn) [Example 1, 5-phenyl-5-[4-(trifluoromethyl)phenoxy]pentan-1-amine], for which the IC50 in test [1] was 57.5 µM; in test [2], 146 µM.

As for `NCCCCC(Oc1ccc(C(F)(F)F)cc1)c1ccccc1.O=C(O)/C=C/C(=O)O` (stereo not drawn) [Example 2, 5-phenyl-5-[4-(trifluoromethyl)phenoxy]pentan-1-amine fumarate], the “tumor growth inhibitory ratio” value in test [3] is 80.5%.

With `NCCCCCC(Oc1ccc(C(F)(F)F)cc1)c1ccccc1` (stereo not drawn) [Example 6, 6-phenyl-6-[4-(trifluoromethyl)phenoxy]hexan-1-amine], the IC50 in test [1] was 89.1 µM; in test [2] it was 128 µM.

Consider `NCCCCC(Oc1ccc(C(F)(F)F)cc1)c1cccc(F)c1` (stereo not drawn) [Example 12], for which the figures for the IC50 in test [1] and in test [2] were 63 µM and 100 µM, respectively.

As to `CCC(C)c1ccc(OC(CCCCN)c2ccccc2)cc1` (stereo not drawn) [Example 26], the IC50 amounted to 57 µM in test [1] and 253 µM in test [2].

Turning to `NCCCCC(Oc1ccc(C(F)(F)F)c(F)c1)c1ccccc1` (stereo not drawn) [Example 29], the IC50 in test [1] was determined as 76 µM; in test [2], 218 µM.

For `NCCCCC(Oc1ccc(OC(F)(F)F)cc1)c1ccccc1` (stereo not drawn) [Example 44], the values for the IC50 in test [1] and in test [2] were 39.4 µM and 169 µM, respectively.

In the case of `NCCCCC(Oc1ccc(C(F)(F)F)cc1)c1cccs1` (stereo not drawn) [Example 48, 5-(thiophen-2-yl)-5-[4-(trifluoromethyl)phenoxy]pentan-1-amine], the IC50 came to 56.6 µM in test [1] and 357 µM in test [2].

Consider `NCCCCC(Oc1ccc(OC(F)(F)F)cc1)c1cccs1` (stereo not drawn) [Example 50], for which the IC50 in test [1] came to 123 µM; in test [2], 313 µM.

Take `CCC(C)c1ccc(OC(CCCCN)c2cccs2)cc1` (stereo not drawn) [Example 51]: the IC50 in test [1] and in test [2] was 261 µM each time.

For the molecule `NCCCCC(Oc1ccc(OC(F)(F)F)c(F)c1)c1cccs1` (stereo not drawn) [Example 53], the IC50 stood at 146 µM in test [1] and 258 µM in test [2].

As to `NCCCCC(Oc1ccc(C(F)(F)F)c(F)c1)c1cccs1` (stereo not drawn) [Example 54], the results for the IC50 in test [1] and in test [2] were 177 µM and 300 µM, respectively.

As for `NCCCC[C@@H](Oc1ccc(C(F)(F)F)cc1)c1ccccc1` [Example 66, (R)-5-phenyl-5-[4-(trifluoromethyl)phenoxy]pentan-1-amine fumarate], the IC50 was found to be 0.17 µM in test [4], 62.8 µM in test [1] and 194 µM in test [2].

On to `NCCCC[C@H](Oc1ccc(C(F)(F)F)cc1)c1ccccc1` [Example 67, (S)-5-phenyl-5-[4-(trifluoromethyl)phenoxy]pentan-1-amine fumarate], for which the IC50 in test [4] was found to be 4.16 µM; in test [1] it was 96.2 µM; in test [2] it was 207 µM.

For the molecule `NCCCC[C@@H](Oc1ccc(C(F)(F)F)c(F)c1)c1ccccc1.O=C(O)/C=C/C(=O)O` [Example 68, (R)-5-[3-fluoro-4-(trifluoromethyl)phenoxy]-5-phenylpentan-1-amine fumarate], the IC50 in test [4] was found to be 0.43 µM; in test [1] it was 36.4 µM; in test [2] it was 156 µM. Further, the “tumor growth inhibitory ratio” value in test [3] came to 84.4%.

On to `NCCCC[C@H](Oc1ccc(C(F)(F)F)c(F)c1)c1ccccc1.O=C(O)/C=C/C(=O)O` [Example 69, (S)-5-[3-fluoro-4-(trifluoromethyl)phenoxy]-5-phenylpentan-1-amine fumarate], for which the values for the IC50 in test [4], in test [1] and in test [2] were 0.83 µM, 69 µM and 53 µM, respectively. In addition, in test [3], the “tumor growth inhibitory ratio” value is 85.5%.

For `NCCCC[C@@H](Oc1ccc(OC(F)(F)F)cc1)c1ccccc1.O=C(O)/C=C/C(=O)O` [Example 70, (R)-5-phenyl-5-[4-(trifluoromethoxy)phenoxy]pentan-1-amine fumarate], the IC50 in test [4] was found to be 0.11 µM; in test [5], 10.4 µM; in test [1] it was 36.6 µM; in test [2], 131 µM. Moreover, the “tumor growth inhibitory ratio” value in test [3] is given as 90.2%.

For the molecule `NCCCC[C@H](Oc1ccc(OC(F)(F)F)cc1)c1ccccc1.O=C(O)/C=C/C(=O)O` [Example 71, (S)-5-phenyl-5-[4-(trifluoromethoxy)phenoxy]pentan-1-amine fumarate], the IC50 in test [4] came out at 3.36 µM; in test [1], 244 µM; in test [2], 131 µM. The “tumor growth inhibitory ratio” value in test [3] amounted to 85.9%.

Regarding `NCCCCC(Oc1ccc(C(F)(F)F)c(F)c1)c1ccccc1.O=C(O)/C=C/C(=O)O` (stereo not drawn) [Example 72], in test [3], the “tumor growth inhibitory ratio” value is listed as 84.4%.

Take `NCCCCC(Oc1ccc(OC(F)(F)F)cc1)c1ccccc1.O=C(O)/C=C/C(=O)O` (stereo not drawn) [Example 73]: the “tumor growth inhibitory ratio” value in test [3] was determined as 83.6%.
